Reference: ChEMBL document CHEMBL1152297, “Quantitative three dimensional structure linear interaction energy model of 5'-O-[N-(salicyl)sulfamoyl]adenosine and the aryl acid adenylating enzyme MbtA” (J Med Chem, 2008)

What follows are compounds tested against T1, Salicyl-AMP ligase / salicyl-S-ArCP synthetase (Mycobacterium tuberculosis, UniProt P71716) (assay: Inhibition of Mycobacterium tuberculosis BAG RV143 MbtA expressed in Escherichia coli BL21 (DE3) assessed as ATP-[32P]PPi exchange by liquid scintillation counting). Conditions: read-out: Ki(app).
T1 sequence (P71716 whole entry): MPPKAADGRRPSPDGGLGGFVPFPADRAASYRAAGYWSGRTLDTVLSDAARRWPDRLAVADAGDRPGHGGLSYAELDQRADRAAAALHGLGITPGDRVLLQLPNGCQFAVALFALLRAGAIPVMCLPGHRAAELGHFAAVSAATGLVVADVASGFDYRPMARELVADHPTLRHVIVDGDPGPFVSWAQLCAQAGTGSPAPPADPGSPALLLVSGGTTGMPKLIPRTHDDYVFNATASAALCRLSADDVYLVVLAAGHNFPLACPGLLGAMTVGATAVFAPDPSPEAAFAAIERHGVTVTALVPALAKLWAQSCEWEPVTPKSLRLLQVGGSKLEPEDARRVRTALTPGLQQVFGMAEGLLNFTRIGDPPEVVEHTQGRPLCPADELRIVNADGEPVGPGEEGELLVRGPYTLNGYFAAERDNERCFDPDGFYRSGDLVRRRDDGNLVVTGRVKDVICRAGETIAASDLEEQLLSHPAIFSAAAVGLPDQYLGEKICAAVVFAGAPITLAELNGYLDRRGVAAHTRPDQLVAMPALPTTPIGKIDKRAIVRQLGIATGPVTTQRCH

| SMILES | Ki [nM] |
| --- | --- |
| Nc1ncnc2c1ncn2[C@@H]1O[C@H](COS(=O)(=O)CC(=O)c2ccccc2O)[C@@H](O)[C@H]1O | 3300 |
| Nc1ncnc2c1ncn2[C@H]1C=C[C@@H](COS(=O)(=O)NC(=O)c2ccccc2O)C1 | 830 |
| Nc1ncnc2c1ncn2[C@@H]1C[C@H](COS(=O)(=O)NC(=O)c2ccccc2O)[C@@H](O)[C@H]1O | 2.3 |
| Nc1ncnc2c1ncn2[C@H]1C[C@H](O)[C@@H](COS(=O)(=O)NC(=O)c2ccccc2O)O1 | 3.5 |
| Nc1ncnc2c1ncn2[C@H]1CC[C@@H](COS(=O)(=O)NC(=O)c2ccccc2O)C1 | 61 |
| Nc1ncnc2c1ncn2[C@@H]1O[C@H](COS(=O)(=O)NCc2ccccc2O)[C@@H](O)[C@H]1O | 410 |
| Nc1ncnc2c1ncn2[C@@H]1O[C@H](CNS(=O)(=O)/C=C/c2ccccc2O)[C@@H](O)[C@H]1O | 143000 |
| Nc1ncnc2c1ncn2[C@@H]1O[C@H](COS(=O)(=O)NC(=O)c2ccccc2O)C[C@H]1O | 3.2 |
| Nc1ncnc2c1ncn2[C@@H]1O[C@H](CNS(=O)(=O)NC(=O)c2ccccc2O)[C@@H](O)[C@H]1O | 3.8 |
